Measurements from US20120282187A1 (BOEHRINGER INGELHEIM INTERNATIONAL GMBH, priority 2008, published 2012).
“And” between values parts separate entries of the source, which are not always exact repeats. Equal entries are not always repeated. “Also recorded” adds a separate entry of the source. Where two headings read alike, the source gives them in different places.

Experiments:
[1] = system: patients with chronic atrial fibrillation; assay: PETRO phase 2 12-week dose finding study; type: in vivo, human; conditions: in vivo
Description: Primary endpoints were bleeding events and changes in D-dimer. […] Minor bleeding was dose related.

[2] = Clinical pharmacokinetics and pharmacodynamics of dabigatran etexilate; type: in vivo
Description: Ezekowitz M D, et al., Dabigatran with or without concomitant aspirin compared with warfarin alone in patients with nonvalvular atrial fibrillation (PETRO study), Am. […] The PETRO study is described below.
As noted above, management of warfarin therapy is complex, and failure to adequately monitor patients is associated with risk. […] It also interacts with many common foods, drugs and alcohol which alter its therapeutic effect, putting patients at risk of either a bleeding or thrombotic event. Therefore, warfarin therapy requires careful individualized dosing and frequent monitoring. The significant limitations of VKAs have created a need for an oral anticoagulant with a rapid onset of action, minimal drug interactions, and a predictable anticoagulation effect that needs no monitoring.
Peak levels are seen within 2-3 hours of oral administration. […] Steady-state is reached within 2-3 days with a twice daily regimen. […] The remainder undergoes conjugation with glucuronic acid to form acylglucuronides which are excreted primarily in the bile.

[3] = system: patients with atrial fibrillation
Description: The PETRO-Ex study was conducted in 52 centers in the United States, Denmark, The Netherlands, and Sweden.
PETRO-Ex began while the PETRO study was ongoing and investigators were initially kept blinded to patient treatment group until PETRO was completed. Unblinding investigators to patient treatment was possible thereafter.
Data were summarized descriptively; no hypothesis was to be tested. Events were analyzed on the basis of the treatment at onset. Incidences were reported as of patients with events as well as normalized to 100 patient-years on the respective treatment.
Patients who were down titrated to 50 mg q.d. based on a glomerular filtration rate≦50 mL/min during PETRO were excluded from the long-term trial; patients down-titrated in other dose levels remained on the q.d. treatment at that dose.
The total exposure reflects both trials, PETRO and PETRO-Ex, together.

[4] = system: activated partial thromboplastin time (aPTT), ecarin clotting time, and thrombin clotting time; assay: Clotting time tests
Description: The anticoagulant effects parallel plasma concentrations.

[5] = system: patients with atrial fibrillation at risk of stroke; assay: RELY clinical trial (Randomized Evaluation of Long-term Anticoagulation Therapy); type: in vivo; conditions: for Stroke, systemic embolism, pulmonary embolism, myocardial infarction death or major bleed, Rate: net benefit
Description: The primary study outcome was stroke or systemic embolism. The primary safety outcome was major hemorrhage. Secondary outcomes were stroke, systemic embolism and death. […] All other bleeding was considered minor.
All analyses were based on intention-to-treat.

AF patients [6] = conditions: SPORTIF V, cited from earlier work
[7] = system: patients who have nonvalvular atrial fibrillation; conditions: VKAs, such as warfarin; cited from earlier work
AF patients [8] = conditions: SPORTIF III, cited from earlier work
AF patients [9] = conditions: ACTIVE W; cited from earlier work
[10] = individual patients with LFT abnormalities, # = with concomitant Bilirubin elevation to >2xULN
[11] = ximelagatran 36 mg b.i.d. vs warfarin

## [H]/N=C(/N)c1ccc(NCc2nc3cc(C(=O)N(CCC(=O)O)c4ccccn4)ccc3n2C)cc1 [Dabigatran]
[1]
  change in D-dimer levels: comparable to warfarin
[2]; after multiple doses
  plasma half life: 12 to 17 h
[2]; human, in vivo
  time to steady-state: 2 to 3 days
[2]; oral administration
  time to peak levels: 2 to 3 h
[3]; 150 mg b.i.d.
  fatal major bleeds, number: 4
[3]; 300 mg q.d.
  fatal major bleeds, number: 1
[3]; all doses
  fatal bleeding events: 0.5 % per year
  fatal major bleeds, number: five
  intracranial bleed rate: 0.4 % per year
[3]; individual patients with LFT abnormalities
  Final Outcome/Comment: Fatal; also recorded: Recovered
[3]; [10]
  LFT abnormality ALT/ULN: >5x (4×) and >5x^# (2×) and >3x (5×) and >3x^#
  LFT abnormality AST/ULN: >5x^# (4×) and >5x (4×) and >3x (5×)
[3]; of the 16 on treatment cases
  LFT abnormality resolved after stopping of dabigatran, number of cases: 5
  LFT abnormality resolved with continuation of dabigatran, number of cases: 10
[4]
  prolongation of activated partial thromboplastin time (aPTT), ecarin clotting time, and thrombin clotting time: dose dependent prolongation
[5]; 110 mg b.i.d.
  Myocardial Infarction, Rate: 0.73 /100 Person Years
  Rates of hemorrhagic stroke: 0.12 % per year
  Stroke, Ischemic or Unspecified, Rate: 1.35 /100 Person Years
  net benefit-risk outcome (major vascular events, major bleeding and death) rate: 7.37 % per year
  Stroke, systemic embolism, pulmonary embolism, myocardial infarction death or major bleed, Rate: 7.37 /100 Person Years
[5]; 150 mg b.i.d.
  Myocardial Infarction, Rate: 0.74 /100 Person Years
  Rates of hemorrhagic stroke: 0.10 % per year
  net benefit-risk outcome (major vascular events, major bleeding and death) rate: 7.22 % per year
  rates of stroke and systemic embolism compared to warfarin: lower rates
  Stroke, systemic embolism, pulmonary embolism, myocardial infarction death or major bleed, Rate: 7.22 /100 Person Years
[5]; Dabigatran 110 mg vs. Warfarin
  First Hospitalization, RR: 0.92
  Myocardial Infarction, RR: 1.35
  Non-disabling Stroke Modified Rankin 0-2, RR: 0.87
  Pulmonary embolism, RR: 1.26
  Stroke or systemic embolism, RR: 0.91
  Stroke, Hemorrhagic, RR: 0.31
  Stroke, Ischemic or Unspecified, RR: 1.12
  Stroke, RR: 0.92
[5]; Dabigatran 150 mg vs. 110 mg
  Stroke, Ischemic or Unspecified, RR: 0.68
  Stroke, RR: 0.70
[5]; Dabigatran 150 mg vs. Warfarin
  First Hospitalization, RR: 0.97
  Myocardial Infarction, RR: 1.38
  Non-disabling Stroke Modified Rankin 0-2, RR: 0.62
  Pulmonary embolism, RR: 1.61
  Stroke or systemic embolism, RR: 0.66
  Stroke, Hemorrhagic, RR: 0.26
  Stroke, Ischemic or Unspecified, RR: 0.76
  Stroke, RR: 0.64
[5]; both doses (110 mg and 150 mg b.i.d.)
  primary outcome compared to warfarin: non-inferior to warfarin

## CC(=O)CC(c1ccccc1)c1c(O)c2ccccc2oc1=O (racemic) [Warfarin, 3-(α-acetonylbenzyl)4-hydroxycoumarin]
AF patients [6]; Warfarin vs. Ximelagatran
  Myocardial Infarction: 1.4% (warfarin)
AF patients [6]; [11]
  Stroke and systemic embolism (per 100 patient years): 1.2% (warfarin)
[7]
  reduction of the risk of stroke compared to control: 64%
AF patients [8]; Warfarin vs. Ximelagatran
  Myocardial Infarction: 0.6% (warfarin)
AF patients [8]; [11]
  Stroke and systemic embolism (per 100 patient years): 2.3% (warfarin)
AF patients [9]
  Myocardial Infarction: 0.6% (warfarin)
  Stroke and systemic embolism (per 100 patient years): 1.5% (warfarin)
[5]; INR 2.0 to 3.0, method of Rosendaal
  mean time in therapeutic range: 64%
[5]; warfarin arm
  Stroke, systemic embolism, pulmonary embolism, myocardial infarction death or major bleed, Rate: 7.99 /100 Person Years
  ALT or AST >3xULN: 2.1%
  ALT or AST >3xULN with concurrent bilirubin >2xULN: 0.4%
  ALT or AST >3xULN with concurrent bilirubin >2xULN, number: 22
  ALT or AST >3xULN, number: 126
  Adverse Event: Arthralgia: 5.5%
  Adverse Event: Arthralgia, number: 328
  Adverse Event: Atrial fibrillation: 5.4%
  Adverse Event: Atrial fibrillation, number: 326
  Adverse Event: Back pain: 5.5%
  Adverse Event: Back pain, number: 331
  Adverse Event: Chest pain: 5.7%
  Adverse Event: Chest pain, number: 342
  Adverse Event: Cough: 5.8%
  Adverse Event: Cough, number: 345
  Adverse Event: Diarrhea: 5.5%
  Adverse Event: Diarrhea, number: 327
  Adverse Event: Dizziness: 9.3%
  Adverse Event: Dizziness, number: 555
  Adverse Event: Dyspepsia: 1.4%
  Adverse Event: Dyspepsia, number: 83
  Adverse Event: Dyspnoea: 9.2%
  Adverse Event: Dyspnoea, number: 550
  Adverse Event: Fatigue: 5.9%
  Adverse Event: Fatigue, number: 353
  Adverse Event: Nasopharyngitis: 5.5%
  Adverse Event: Nasopharyngitis, number: 327
  Adverse Event: Peripheral edema: 7.6%
  Adverse Event: Peripheral edema, number: 453
  Adverse Event: Upper respiratory tract infection: 5.0%
  Adverse Event: Upper respiratory tract infection, number: 297
  Adverse Event: Urinary tract infection: 5.3%
  Adverse Event: Urinary tract infection, number: 315
  All Death, Rate: 4.13 /100 Person Years
  Any Major Bleeding, Rate: 3.46 /100 Person Years
  Extracranial Bleeding, Rate: 2.73 /100 Person Years
  First Hospitalization, Rate: 27.5 /100 Person Years
  Intracranial Bleeding, Rate: 0.72 /100 Person Years
  Major Bleeding, Life threatening, Rate: 1.80 /100 Person Years
  Major Bleeding, Other Major, Rate: 1.80 /100 Person Years
  Major gastro-intestinal Bleeding, Rate: 1.03 /100 Person Years
  Major or Minor Bleeding, Rate: 23.92 /100 Person Years
  Minor Bleeding, Rate: 21.03 /100 Person Years
  Mortality rates (death from any cause): 4.13 % per year
  Myocardial Infarction, Rate: 0.54 /100 Person Years
  Myocardial infarction rate: 0.54 % per year
  Non-disabling Stroke Modified Rankin 0-2, Rate: 0.58 /100 Person Years
  Pulmonary embolism, Rate: 0.09 /100 Person Years
  Rates of hemorrhagic stroke: 0.38 % per year
  Rates of major hemorrhage / major bleeding: 3.46 % per year
  Reason for discontinuation: Gastrointestinal bleeding: XXX (0.9) %
  Reason for discontinuation: Gastrointestinal disorders (including pain, vomiting and diarrhea): XXX (0.8) %
  Reason for discontinuation: Outcome event: XXX (2.2) %
  Reason for discontinuation: Patient decision: XXX (6.2) %
  Reason for discontinuation: SAE: 1.6%
  Reason for discontinuation: SAE, number: 95
  Stroke or systemic embolism, Rate: 1.70 /100 Person Years
  Stroke, Hemorrhagic, Rate: 0.38 /100 Person Years
  Stroke, Rate: 1.58 /100 Person Years
  Study Drug Discontinuation At one year: XXXX (10) %
  Study Drug Discontinuation At two years: XXXX (19) %
  Vascular Death, Rate: 2.69 /100 Person Years
  hepatobiliary disorders (AE): 2.2%
  hepatobiliary disorders (AE), number: 132
  hepatobiliary disorders (SAE): 0.4%
  hepatobiliary disorders (SAE), number: 25
  net benefit-risk outcome (major vascular events, major bleeding and death) rate: 7.99 % per year
  rates of discontinuation at 2.5 years: 19%
  stroke or systemic embolism (primary outcome) rate: 1.70 % per year
[5]; warfarin arm, listed as warfarin
  Study Drug Discontinuation At one year: 10%
